Data from ChEMBL document CHEMBL1143644, “Synthesis and biological activities of novel aryl indole-2-carboxylic acid analogs as PPARgamma partial agonists” (Bioorg Med Chem Lett, 2005).

Assays:
[1] = Half life at normal dose was determined; assay type: ADME
[2] = Bioavailability; assay type: ADME, organism-based; conditions: eutheria, in vivo
[3] = molecular target: T1, Peroxisome proliferator-activated receptor gamma (Homo sapiens, UniProt P37231); test: Effective agonist concentration for human PPAR gamma Gal4 construct in transactivation assay; assay type: functional
T1 sequence (P37231 whole entry): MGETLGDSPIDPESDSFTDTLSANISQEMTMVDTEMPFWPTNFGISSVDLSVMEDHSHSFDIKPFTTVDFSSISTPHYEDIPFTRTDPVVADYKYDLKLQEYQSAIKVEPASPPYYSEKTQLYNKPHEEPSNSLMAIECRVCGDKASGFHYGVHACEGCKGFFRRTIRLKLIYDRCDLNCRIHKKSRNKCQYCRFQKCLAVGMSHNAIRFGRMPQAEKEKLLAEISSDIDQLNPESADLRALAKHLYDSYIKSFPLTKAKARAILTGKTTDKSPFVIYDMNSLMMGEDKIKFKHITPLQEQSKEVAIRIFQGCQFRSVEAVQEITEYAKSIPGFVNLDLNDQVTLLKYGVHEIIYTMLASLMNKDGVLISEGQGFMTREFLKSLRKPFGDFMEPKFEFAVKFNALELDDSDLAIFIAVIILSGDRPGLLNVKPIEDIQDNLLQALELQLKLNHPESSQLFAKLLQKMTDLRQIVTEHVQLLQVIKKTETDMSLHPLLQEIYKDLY

[4] = molecular target: T2, Peroxisome proliferator-activated receptor alpha (Homo sapiens, UniProt Q07869); test: Inhibitory concentration against human peroxisome proliferator activated receptor alpha in SPA assay
T2 sequence (Q07869 whole entry): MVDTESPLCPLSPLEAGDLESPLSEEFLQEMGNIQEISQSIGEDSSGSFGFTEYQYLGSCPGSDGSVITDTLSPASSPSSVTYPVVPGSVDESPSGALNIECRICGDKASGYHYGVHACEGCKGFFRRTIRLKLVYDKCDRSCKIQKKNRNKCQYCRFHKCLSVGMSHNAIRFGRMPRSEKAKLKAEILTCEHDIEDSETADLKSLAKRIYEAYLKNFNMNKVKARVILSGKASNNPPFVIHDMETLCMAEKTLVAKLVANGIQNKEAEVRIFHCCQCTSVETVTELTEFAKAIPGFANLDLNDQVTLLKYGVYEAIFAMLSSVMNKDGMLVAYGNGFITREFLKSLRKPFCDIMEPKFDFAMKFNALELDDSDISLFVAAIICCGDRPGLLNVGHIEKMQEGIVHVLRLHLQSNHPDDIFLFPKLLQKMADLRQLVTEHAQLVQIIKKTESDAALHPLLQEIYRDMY

[5] = molecular target: T1, Peroxisome proliferator-activated receptor gamma
Description: Inhibitory concentration against human peroxisome proliferator activated receptor gamma in SPA assay

[6] = Area under curve at normal dose was determined; assay type: ADME

half-life [1] [min] | bioavailability [2] [%] | EC50 [3] [nM] | IC50 [4] [nM] | IC50 [5] [nM] | Structure (SMILES) | AUC [6] [µM·h]
48 | 2.4 | 6 |  |  | CC(C)(C)c1ccc(-n2c(C(=O)O)c(Oc3cccc(C(F)(F)F)c3)c3cc(Oc4cc(C(F)(F)F)ccn4)ccc32)cc1 | 
 |  | 106 | > 15000 | 27 | CC(C)(C)c1ccc(-n2c(C(=O)O)c(Oc3cccc(C(F)(F)F)c3)c3ccc(Cl)cc32)cc1 | 
 |  | 91 | 4150 | 18 | CC(C)COc1ccc2c(c1)c(Oc1cccc(C(F)(F)F)c1)c(C(=O)O)n2-c1ccc(C(C)(C)C)cc1 | 
 |  |  | > 15000 |  | O=C(O)c1c(Sc2ccccc2)c2cc(Cl)ccc2n1Cc1ccc(Cl)cc1 | 
 |  |  | 4480 | 13 | CC(C)(C)c1ccc(-n2c(C(=O)O)c(Oc3ccc(Cl)c(C(F)(F)F)c3)c3cc(Cl)ccc32)cc1 | 
 |  |  | > 50000 | 102 | CC(C)c1cccc(-n2c(C(=O)O)c(Oc3cccc(O)c3)c3ccccc32)c1 | 
 |  | 233 | > 50000 | 49 | CCOc1cccc(Oc2c(C(=O)O)n(-c3ccc(C(C)(C)C)cc3)c3ccccc23)c1 | 
 |  |  | > 15000 | 19 | CC(C)c1cccc(Oc2c(C(=O)O)n(-c3ccc(C(C)(C)C)cc3)c3cc(Cl)ccc23)c1 | 
108 | 9.8 | 2 | > 15000 | 2 | CC(C)(C)c1ccc(-n2c(C(=O)O)c(Oc3cccc(C(F)(F)F)c3)c3cc(Oc4cc(Cl)c[nH]4)ccc32)cc1 | 0.3
 |  |  | > 15000 | 83 | CC(C)(C)c1ccc(-n2c(C(=O)O)c(Oc3cc(C(F)(F)F)cc(C(F)(F)F)c3)c3cc(Cl)ccc32)cc1 | 
 |  | 161 | > 50000 | 78 | CC(C)(C)c1ccc(-n2c(C(=O)O)c(Oc3cccc(O)c3)c3ccccc32)cc1 | 
 |  | 126 |  |  | CC(C)(C)c1ccc(-n2c(C(=O)O)c(Oc3cccc(C(F)(F)F)c3)c3cc(Oc4ccccn4)ccc32)cc1 | 
 |  |  | > 15000 | 120 | CC(C)c1cccc(-n2c(C(=O)O)c(Oc3ccc(C(F)(F)F)cc3)c3ccccc32)c1 | 
 |  |  | 3580 | 49 | CC(C)(C)c1ccc(-n2c(C(=O)O)c(Oc3ccc(OC(F)(F)F)cc3)c3ccccc32)cc1 | 
 |  | 334 | > 50000 | 115 | COc1ccc(-n2c(C(=O)O)c(Oc3cccc(C(F)(F)F)c3)c3ccccc32)cc1 | 
 |  |  | > 50000 | 318 | CC(C)(C)c1ccc(-n2c(C(=O)O)c(Oc3cccc(C(F)(F)F)c3)c3cc(O)ccc32)cc1 | 
 |  | 34 | > 50000 | 251 | CC(C)(C)c1ccc(-n2c(C(=O)O)c(Oc3ccc(-c4cc(C(F)(F)F)c[nH]4)cc3)c3cccnc32)cc1 | 
 |  | 34 | 6270 | 18 | CCOc1ccc2c(c1)c(Oc1cccc(C(F)(F)F)c1)c(C(=O)O)n2-c1ccc(C(C)(C)C)cc1 | 
 |  | 755 | > 15000 | 104 | COc1cccc(Oc2c(C(=O)O)n(-c3ccc(C(C)(C)C)cc3)c3nc(Cl)ccc23)c1 | 
 |  |  | > 15000 | 39 | COc1ccc2c(c1)c(Oc1cccc(C(F)(F)F)c1)c(C(=O)O)n2-c1ccc(C(C)(C)C)cc1 | 
 |  |  | > 50000 | 202 | CC(C)(C)c1ccc(-n2c(C(=O)O)c(Oc3cccc(S(C)(=O)=O)c3)c3ccc(Cl)nc32)cc1 | 
 |  | 411 | > 15000 | 298 | CC(C)(C)c1ccc(-n2c(C(=O)O)c(Oc3ccc(Cl)cc3)c3ccc(OC(F)(F)F)cc32)cc1 | 
 |  | 299 | > 15000 | 100 | COc1ccc2c(Oc3cccc(C(F)(F)F)c3)c(C(=O)O)n(-c3ccc(C(C)(C)C)cc3)c2n1 | 
 |  | 136 | > 15000 | 17 | CC(C)(C)c1ccc(-n2c(C(=O)O)c(Oc3cccc(C(F)(F)F)c3)c3cc(Cl)ccc32)cc1 | 
 |  |  | > 15000 | 60 | CC(C)c1cccc(-n2c(C(=O)O)c(Oc3cccc(C(F)(F)F)c3)c3ccccc32)c1 | 
 |  |  | 3200 | 107 | O=C(O)c1c(Oc2cccc(C(F)(F)F)c2)c2ccccc2n1-c1ccc(C(F)(F)F)cc1 | 
 |  | 464 | > 50000 | 75 | CC(C)(C)c1ccc(-n2c(C(=O)O)c(Oc3cccc(C(F)(F)F)c3)c3cccnc32)cc1 | 

Structure (SMILES) | half-life [1] [min] | bioavailability [2] [%] | EC50 [3] [nM] | IC50 [4] [nM] | IC50 [5] [nM] | AUC [6] [µM·h]
CC(C)(C)c1ccc(-n2c(C(=O)O)c(Oc3cccc(C(F)(F)F)c3)c3ccc(Cl)nc32)cc1 |  |  | 176 | > 15000 | 21 | 
CC(C)(C)c1ccc(-n2c(C(=O)O)c(Oc3cccc(C(F)(F)F)c3)c3ccccc32)cc1 | 30 |  | 13 | 10600 | 12 | 9.19
CC(C)(C)c1ccc(-n2c(C(=O)O)c(Oc3cccc(-c4cc(C(F)(F)F)c[nH]4)c3)c3ccc(Cl)nc32)cc1 |  |  | 95 | > 50000 | 58 | 
